Measurements from paper PMC8216281, “RNA pull-down confocal nanoscanning (RP-CONA) detects quercetin as pri-miR-7/HuR interaction inhibitor that decreases α-synuclein levels” (Nucleic Acids Research, 2021).

Assays:
HuR [1] = biological target: T1, HuR (Homo sapiens, UniProt Q15717); experiment: RP-CONA on-bead confocal assay: inhibition of mCherry-HuR binding to pri-miR-7-1-CTL RNA in cell lysate; confirmed by RNA pull-down/western blot; type: biochemical
T1 construct: gene ELAVL1; mCherry-HuR (HuR open reading frame), overexpressed in HuR KO HEK293T lysate
T1 sequence (Q15717 2-326): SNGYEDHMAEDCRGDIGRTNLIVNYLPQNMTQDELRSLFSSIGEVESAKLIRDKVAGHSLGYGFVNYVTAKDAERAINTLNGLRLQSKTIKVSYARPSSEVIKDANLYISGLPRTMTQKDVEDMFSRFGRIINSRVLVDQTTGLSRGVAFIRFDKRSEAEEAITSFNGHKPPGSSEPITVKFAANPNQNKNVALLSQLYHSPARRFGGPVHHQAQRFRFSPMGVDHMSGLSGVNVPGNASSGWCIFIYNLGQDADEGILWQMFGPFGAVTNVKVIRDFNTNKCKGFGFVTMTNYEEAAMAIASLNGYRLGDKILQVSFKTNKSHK

HuR [2] = biological target: T1, HuR; experiment: RP-CONA on-bead confocal assay: inhibition of mCherry-HuR binding to pri-miR-7-1-CTL RNA in cell lysate; confirmed by RNA pull-down/western blot and RIP in cells; type: biochemical

## O=c1cc(-c2ccc(O)c(O)c2)oc2cc(O)cc(O)c12 [luteolin]
HuR [1]
  IC50: 2030 ± 250 nM

## O=c1c(O)c(-c2ccc(O)c(O)c2)oc2cc(O)cc(O)c12 [quercetin]
HuR [2]
  IC50: 2150 ± 160 nM
